# What was measured:
# [1] = test system: NOMO1; assay: AUC of viability dose-response curve (% viability x log10 dose units); higher = less sensitive; conditions: 48 h
# How it was run: (§1)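 Viability of medium-adapted leukemia cells was measured by CellTiter-Glo One luminescence after 48 h at 37°C with library compounds in DMSO. Doses were 11 threefold steps from 47 μM to 0.79 nM, in 1536-well plates at 500 or 1000 cells/well. Signals were normalised per plate to DMSO and cell-free wells and fitted with a four-parameter log-logistic model on log10 dose. Area under the curve was integrated by trapezoidal rule, with curves exceeding full viability scaled and failed quality-control curves removed.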
# [2] = test system: SEM cells; assay: as above; conditions: 48 h
# How it was run: as §1
# [3] = test system: P12-Ichikawa; assay: as above; conditions: 48 h
# How it was run: as §1
# [4] = test system: SEM cells; assay: cell viability relative to DMSO control; higher = less cytotoxic; conditions: 48 h
# How it was run: (§2)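 Viability is a per-plate percentage relative to DMSO wells, with cell-free wells as background. CellTiter-Glo One luminescence was read after 48 h at 37°C on 1536-well plates (5 μl) of NOMO1 or SEM (500 cells/well) or P12-Ichikawa (1000 cells/well) leukemia cells. The cells had been adapted for at least four passages in each medium and pin-dosed with library compounds in DMSO from 47 μM to 0.79 nM in 11 threefold steps.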
# [5] = test system: P12-Ichikawa; assay: as above; conditions: RPMI 5 mM glucose + 10% dialyzed FBS, 48 h
# How it was run: as §2
# [6] = test system: NOMO1; assay: as above; conditions: 48 h
# How it was run: as §2
# [7] = RPMI 5 mM glucose + 10% dialyzed FBS
# [8] = HPLM + 10% dialyzed FBS, 0.000781 µM
# [9] = HPLM + 10% dialyzed FBS, 0.00234 µM
# [10] = HPLM + 10% dialyzed FBS, 0.00702 µM
# [11] = HPLM + 10% dialyzed FBS, 0.0211 µM
# [12] = HPLM + 10% dialyzed FBS, 0.0632 µM
# [13] = HPLM + 10% dialyzed FBS, 0.19 µM
# [14] = HPLM + 10% dialyzed FBS, 0.569 µM
# [15] = HPLM + 10% dialyzed FBS, 1.71 µM
# [16] = HPLM + 10% dialyzed FBS, 5.12 µM
# [17] = HPLM + 10% dialyzed FBS, 15.4 µM
# [18] = HPLM + 10% dialyzed FBS, 46.1 µM
# [19] = RPMI 5 mM glucose + 10% FBS, 0.000781 µM
# [20] = RPMI 5 mM glucose + 10% FBS, 0.00234 µM
# [21] = RPMI 5 mM glucose + 10% FBS, 0.00702 µM
# [22] = RPMI 5 mM glucose + 10% FBS, 0.0211 µM
# [23] = RPMI 5 mM glucose + 10% FBS, 0.0632 µM
# [24] = RPMI 5 mM glucose + 10% FBS, 0.19 µM
# [25] = RPMI 5 mM glucose + 10% FBS, 0.569 µM
# [26] = RPMI 5 mM glucose + 10% FBS, 1.71 µM
# [27] = RPMI 5 mM glucose + 10% FBS, 5.12 µM
# [28] = RPMI 5 mM glucose + 10% FBS, 15.4 µM
# [29] = RPMI 5 mM glucose + 10% FBS, 46.1 µM
# [30] = RPMI 5 mM glucose + 10% dialyzed FBS, 0.000781 µM
# [31] = RPMI 5 mM glucose + 10% dialyzed FBS, 0.00234 µM
# [32] = RPMI 5 mM glucose + 10% dialyzed FBS, 0.00702 µM
# [33] = RPMI 5 mM glucose + 10% dialyzed FBS, 0.0211 µM
# [34] = RPMI 5 mM glucose + 10% dialyzed FBS, 0.0632 µM
# [35] = RPMI 5 mM glucose + 10% dialyzed FBS, 0.19 µM
# [36] = RPMI 5 mM glucose + 10% dialyzed FBS, 0.569 µM
# [37] = RPMI 5 mM glucose + 10% dialyzed FBS, 1.71 µM
# [38] = RPMI 5 mM glucose + 10% dialyzed FBS, 5.12 µM
# [39] = RPMI 5 mM glucose + 10% dialyzed FBS, 15.4 µM
# [40] = RPMI 5 mM glucose + 10% dialyzed FBS, 46.1 µM
smiles,measurement,setting,value
CC(C)C[C@H](NC(=O)[C@@H](O)[C@H](N)Cc1ccccc1)C(=O)O,AUC of viability dose-response curve,[1]; HPLM + 10% dialyzed FBS,451
same,AUC of viability dose-response curve,[1]; RPMI 5 mM glucose + 10% FBS,447
same,AUC of viability dose-response curve,[1]; [7],439
same,AUC of viability dose-response curve,[2]; HPLM + 10% dialyzed FBS,453
same,AUC of viability dose-response curve,[2]; RPMI 5 mM glucose + 10% FBS,455
same,AUC of viability dose-response curve,[2]; [7],454
same,AUC of viability dose-response curve,[3]; HPLM + 10% dialyzed FBS,463
same,AUC of viability dose-response curve,[3]; RPMI 5 mM glucose + 10% FBS,447
same,AUC of viability dose-response curve,[3]; [7],452
same,cell viability,[4]; [8],86%
same,cell viability,[4]; [9],122%
same,cell viability,[4]; [10],121%
same,cell viability,[4]; [11],131%
same,cell viability,[4]; [12],136%
same,cell viability,[4]; [13],119%
same,cell viability,[4]; [14],114%
same,cell viability,[4]; [15],128%
same,cell viability,[4]; [16],120%
same,cell viability,[4]; [17],114%
same,cell viability,[4]; [18],10.7%
same,cell viability,[4]; [19],59.2%
same,cell viability,[4]; [20],122%
same,cell viability,[4]; [21],127%
same,cell viability,[4]; [22],123%
same,cell viability,[4]; [23],133%
same,cell viability,[4]; [24],115%
same,cell viability,[4]; [25],118%
same,cell viability,[4]; [26],121%
same,cell viability,[4]; [27],109%
same,cell viability,[4]; [28],117%
same,cell viability,[4]; [29],8.04%
same,cell viability,[4]; [30],62.3%
same,cell viability,[4]; [31],119%
same,cell viability,[4]; [32],136%
same,cell viability,[4]; [33],135%
same,cell viability,[4]; [34],129%
same,cell viability,[4]; [35],123%
same,cell viability,[4]; [36],127%
same,cell viability,[4]; [37],132%
same,cell viability,[4]; [38],131%
same,cell viability,[4]; [39],116%
same,cell viability,[4]; [40],13.2%
same,cell viability,[5]; 0.000781 µM,116%
same,cell viability,[5]; 0.00234 µM,130%
same,cell viability,[5]; 0.00702 µM,124%
same,cell viability,[5]; 0.0211 µM,130%
same,cell viability,[5]; 0.0632 µM,130%
same,cell viability,[5]; 0.19 µM,111%
same,cell viability,[5]; 0.569 µM,120%
same,cell viability,[5]; 1.71 µM,115%
same,cell viability,[5]; 5.12 µM,123%
same,cell viability,[5]; 15.4 µM,104%
same,cell viability,[5]; 46.1 µM,32%
Cc1ccc2c(c1)c1c(n2CCc2ccc(C)nc2)CCN(C)C1,AUC of viability dose-response curve,[1]; HPLM + 10% dialyzed FBS,447
same,AUC of viability dose-response curve,[1]; RPMI 5 mM glucose + 10% FBS,458
same,AUC of viability dose-response curve,[1]; [7],472
same,AUC of viability dose-response curve,[2]; HPLM + 10% dialyzed FBS,472
same,AUC of viability dose-response curve,[2]; RPMI 5 mM glucose + 10% FBS,471
same,AUC of viability dose-response curve,[2]; [7],474
same,AUC of viability dose-response curve,[3]; HPLM + 10% dialyzed FBS,459
same,AUC of viability dose-response curve,[3]; RPMI 5 mM glucose + 10% FBS,465
same,AUC of viability dose-response curve,[3]; [7],469
same,cell viability,[6]; [8],126%
same,cell viability,[6]; [9],115%
same,cell viability,[6]; [10],111%
same,cell viability,[6]; [11],130%
same,cell viability,[6]; [12],128%
same,cell viability,[6]; [13],130%
same,cell viability,[6]; [14],141%
same,cell viability,[6]; [15],134%
same,cell viability,[6]; [16],141%
same,cell viability,[6]; [17],153%
same,cell viability,[6]; [18],127%
same,cell viability,[4]; [8],110%
same,cell viability,[4]; [9],124%
same,cell viability,[4]; [10],120%
same,cell viability,[4]; [11],122%
same,cell viability,[4]; [12],133%
same,cell viability,[4]; [13],131%
same,cell viability,[4]; [14],117%
same,cell viability,[4]; [15],121%
same,cell viability,[4]; [16],135%
same,cell viability,[4]; [17],120%
same,cell viability,[4]; [18],106%
same,cell viability,[4]; [19],116%
same,cell viability,[4]; [20],117%
same,cell viability,[4]; [21],145%
same,cell viability,[4]; [22],147%
same,cell viability,[4]; [23],148%
same,cell viability,[4]; [24],155%
same,cell viability,[4]; [25],140%
same,cell viability,[4]; [26],127%
same,cell viability,[4]; [27],138%
same,cell viability,[4]; [28],134%
same,cell viability,[4]; [29],109%
CC(COc1ccccc1)N(CCCl)Cc1ccccc1 (centres undefined),AUC of viability dose-response curve,[1]; HPLM + 10% dialyzed FBS,304
same,AUC of viability dose-response curve,[1]; RPMI 5 mM glucose + 10% FBS,280
same,AUC of viability dose-response curve,[1]; [7],316
same,AUC of viability dose-response curve,[2]; HPLM + 10% dialyzed FBS,465
same,AUC of viability dose-response curve,[2]; RPMI 5 mM glucose + 10% FBS,451
same,AUC of viability dose-response curve,[2]; [7],469
same,AUC of viability dose-response curve,[3]; HPLM + 10% dialyzed FBS,367
same,AUC of viability dose-response curve,[3]; RPMI 5 mM glucose + 10% FBS,372
same,AUC of viability dose-response curve,[3]; [7],380
same,cell viability,[4]; [8],89.3%
same,cell viability,[4]; [9],102%
same,cell viability,[4]; [10],121%
same,cell viability,[4]; [11],110%
same,cell viability,[4]; [12],116%
same,cell viability,[4]; [13],115%
same,cell viability,[4]; [14],104%
same,cell viability,[4]; [15],110%
same,cell viability,[4]; [16],123%
same,cell viability,[4]; [17],119%
same,cell viability,[4]; [18],89.4%
same,cell viability,[4]; [19],101%
same,cell viability,[4]; [20],123%
same,cell viability,[4]; [21],127%
same,cell viability,[4]; [22],120%
same,cell viability,[4]; [23],112%
same,cell viability,[4]; [24],135%
same,cell viability,[4]; [25],131%
same,cell viability,[4]; [26],128%
same,cell viability,[4]; [27],148%
same,cell viability,[4]; [28],147%
same,cell viability,[4]; [29],115%
CNC(=O)CN1CCC(Oc2cc3c(Nc4cccc(Cl)c4F)ncnc3cc2OC)CC1,AUC of viability dose-response curve,[1]; HPLM + 10% dialyzed FBS,320
same,AUC of viability dose-response curve,[1]; RPMI 5 mM glucose + 10% FBS,302
same,AUC of viability dose-response curve,[1]; [7],325
same,AUC of viability dose-response curve,[2]; HPLM + 10% dialyzed FBS,457
same,AUC of viability dose-response curve,[2]; RPMI 5 mM glucose + 10% FBS,469
same,AUC of viability dose-response curve,[2]; [7],469
same,AUC of viability dose-response curve,[3]; HPLM + 10% dialyzed FBS,364
same,AUC of viability dose-response curve,[3]; RPMI 5 mM glucose + 10% FBS,356
same,AUC of viability dose-response curve,[3]; [7],374
same,cell viability,[6]; [30],116%
same,cell viability,[6]; [31],122%
same,cell viability,[6]; [32],138%
same,cell viability,[6]; [33],133%
same,cell viability,[6]; [34],141%
same,cell viability,[6]; [35],144%
same,cell viability,[6]; [36],52.7%
same,cell viability,[6]; [37],41.8%
same,cell viability,[6]; [38],32.1%
same,cell viability,[6]; [39],33.7%
same,cell viability,[6]; [40],31.7%
same,cell viability,[4]; [8],104%
same,cell viability,[4]; [9],110%
same,cell viability,[4]; [10],110%
same,cell viability,[4]; [11],135%
same,cell viability,[4]; [12],112%
same,cell viability,[4]; [13],122%
same,cell viability,[4]; [14],128%
same,cell viability,[4]; [15],130%
same,cell viability,[4]; [16],121%
same,cell viability,[4]; [17],129%
same,cell viability,[4]; [18],104%
same,cell viability,[4]; [19],117%
same,cell viability,[4]; [20],128%
same,cell viability,[4]; [21],116%
same,cell viability,[4]; [22],118%
same,cell viability,[4]; [23],120%
same,cell viability,[4]; [24],130%
same,cell viability,[4]; [25],130%
same,cell viability,[4]; [26],124%
same,cell viability,[4]; [27],125%
same,cell viability,[4]; [28],122%
same,cell viability,[4]; [29],84.9%
same,cell viability,[4]; [30],114%
same,cell viability,[4]; [31],113%
same,cell viability,[4]; [32],120%
same,cell viability,[4]; [33],141%
same,cell viability,[4]; [34],138%
same,cell viability,[4]; [35],152%
same,cell viability,[4]; [36],140%
same,cell viability,[4]; [37],149%
same,cell viability,[4]; [38],125%
same,cell viability,[4]; [39],138%
same,cell viability,[4]; [40],88.8%

# From the supplement of paper PMC11451515
